Like-named read-outs stand apart in the source and are kept apart here.
Columns and labels:
Enterovirus 6 = assay: In vitro CPE assay in mammalian cell culture, EV6; type: cell-based; conditions: viral cytopathic effect in mammalian cell culture, read-out: EV6 inhibition capacity (IC50)
Enterovirus 30 = assay: In vitro CPE assay in mammalian cell culture, EV30; type: cell-based; conditions: viral cytopathic effect in mammalian cell culture, read-out: EV30 inhibition capacity (IC50)
Enterovirus 68 = assay: In vitro CPE assay in mammalian cell culture, EV68; type: cell-based; conditions: Enterovirus D, viral cytopathic effect in mammalian cell culture, read-out: EV68 inhibition capacity (IC50)
Enterovirus 71 = assay: In vitro CPE assay in mammalian cell culture, EV71; type: cell-based; conditions: Enterovirus A, viral cytopathic effect in mammalian cell culture, read-out: EV71 inhibition capacity (IC50)
coxsackie B1 virus = assay: In vitro CPE assay in mammalian cell culture, B1; type: cell-based; conditions: viral cytopathic effect in mammalian cell culture, read-out: B1 inhibition capacity (IC50)
coxsackie B2 virus = assay: In vitro CPE assay in mammalian cell culture, B2; type: cell-based; conditions: viral cytopathic effect in mammalian cell culture, read-out: B2 inhibition capacity (IC50)
coxsackie B3 virus = assay: In vitro CPE assay in mammalian cell culture, B3; type: cell-based; conditions: Enterovirus B, viral cytopathic effect in mammalian cell culture, read-out: B3 inhibition capacity (IC50)
coxsackie B5 virus = assay: In vitro CPE assay in mammalian cell culture, B5; type: cell-based; conditions: viral cytopathic effect in mammalian cell culture, read-out: B5 inhibition capacity (IC50)
polio virus Sabin 1 = assay: organism not typed; type: cell-based; conditions: read-out: Polio 1 inhibition capacity (IC50)
in vivo = assay: in vivo; design: species or system Sprague Dawley rats; conditions: male, Sprague Dawley, rat, po, 50 mg/kg
Procedure: Overnight fasted animals were administered with the test compounds in recommended vehicle 0.4% (v/v) Tween 80+2% (v/v) Glycerol and 15% w/v HPBCD by oral route with a dose of 50 mg/kg body weight at dose volume of 10 mL/kg bw. Under mild isoflurane anesthesia, blood samples were collected into pre-labeled tubes containing anticoagulant (K2EDTA—2 mg/mL blood) during the next 24 hours post dose. Collected blood samples were centrifuged at 4000 rpm, 4° C. for 10 minutes and plasma was separated and stored at −80° C. until analysis.

[1] = Metabolic stability in human liver microsomes; type: in vitro ADME; conditions: for Remaining after 1 h, HLM: human liver microsomes, 5 μM test item, 0.125 mg/mL microsomal protein; for half-life at 5 μM: human, microsomes
Procedure: (§1) Metabolic stability in human and rat liver microsomesMetabolic stability was studied using human (HLM) or rat (RLM) liver microsomes. The final composition of the assay included 5 μM of test item and reference item (Diclofenac or Imipramine) prepared from DMSO stock, so that the final concentration of DMSO was 0.1%, 0.125 mg/mL microsomal protein and cofactors (5.0 mM G-6-P, 0.06 U/mL G-6-PDH, 2.0 mM MgCl2, 1.0 mM NADP^+). Test and reference items were incubated with human or rat liver microsomes with or without cofactors. The reaction mixture (100 μL) was removed at specified time periods and the reaction was stopped by addition of stop solution. The samples were extracted in presence of internal standard and were analyzed using LC-MS/MS. The percent of the test/reference item remaining after a specified incubation period was calculated with respect to the peak area ratio at time 0 min.

[2] = Metabolic stability in rat liver microsomes; type: in vitro ADME; conditions: 5 μM test item, 0.125 mg/mL microsomal protein
Procedure: as §1

in vitro = in vitro ADME; conditions: plasma, pH 7.4
Procedure: Plasma protein binding study was performed by using a Rapid Equilibrium Dialysis (RED) device containing dialysis membrane with a molecular weight cut-off of 8,000 Daltons. Each dialysis insert contains two chambers. The red chamber was for the plasma while the white chamber was for the buffer. The human and rat plasma (pH adjusted to 7.40) samples of test items and reference items (Warfarin and Propranolol) were prepared at a required test concentration of 5 μM using 5 mM DMSO stocks (final DMSO concentration was 0.1%). 300 μL of plasma sample was added into the sample chamber. 500 μL of buffer was added into the buffer chamber. After sealing the RED device with an adhesive film, incubation was done at 37° C. with shaking at 300 rpm for 4 h. Following incubation, an aliquot of 50 μL was removed from each well (plasma and buffer side) and diluted with equal volume of opposite matrix to nullify the matrix effect. The specimens were subjected to sample extraction in presence of internal standard by liquid-liquid extraction/protein precipitation method. After extraction, the samples were transferred into labeled auto sampler vials and submitted to LC-MS/MS analysis.

coxsackie B4 virus = assay: In vitro CPE assay in mammalian cell culture, B4; type: cell-based; conditions: Enterovirus B, viral cytopathic effect in mammalian cell culture, read-out: B4 inhibition capacity (IC50)
PI4KIIIα = PI4KIIIα (Homo sapiens, UniProt P42356); assay: Phosphatidyl inositol kinase inhibition assay (ADP-Glo Kinase Assay); type: biochemical; conditions: * no inhibition at the highest tested concentration 1 μM
Sequence of PI4KIIIα (P42356 whole entry): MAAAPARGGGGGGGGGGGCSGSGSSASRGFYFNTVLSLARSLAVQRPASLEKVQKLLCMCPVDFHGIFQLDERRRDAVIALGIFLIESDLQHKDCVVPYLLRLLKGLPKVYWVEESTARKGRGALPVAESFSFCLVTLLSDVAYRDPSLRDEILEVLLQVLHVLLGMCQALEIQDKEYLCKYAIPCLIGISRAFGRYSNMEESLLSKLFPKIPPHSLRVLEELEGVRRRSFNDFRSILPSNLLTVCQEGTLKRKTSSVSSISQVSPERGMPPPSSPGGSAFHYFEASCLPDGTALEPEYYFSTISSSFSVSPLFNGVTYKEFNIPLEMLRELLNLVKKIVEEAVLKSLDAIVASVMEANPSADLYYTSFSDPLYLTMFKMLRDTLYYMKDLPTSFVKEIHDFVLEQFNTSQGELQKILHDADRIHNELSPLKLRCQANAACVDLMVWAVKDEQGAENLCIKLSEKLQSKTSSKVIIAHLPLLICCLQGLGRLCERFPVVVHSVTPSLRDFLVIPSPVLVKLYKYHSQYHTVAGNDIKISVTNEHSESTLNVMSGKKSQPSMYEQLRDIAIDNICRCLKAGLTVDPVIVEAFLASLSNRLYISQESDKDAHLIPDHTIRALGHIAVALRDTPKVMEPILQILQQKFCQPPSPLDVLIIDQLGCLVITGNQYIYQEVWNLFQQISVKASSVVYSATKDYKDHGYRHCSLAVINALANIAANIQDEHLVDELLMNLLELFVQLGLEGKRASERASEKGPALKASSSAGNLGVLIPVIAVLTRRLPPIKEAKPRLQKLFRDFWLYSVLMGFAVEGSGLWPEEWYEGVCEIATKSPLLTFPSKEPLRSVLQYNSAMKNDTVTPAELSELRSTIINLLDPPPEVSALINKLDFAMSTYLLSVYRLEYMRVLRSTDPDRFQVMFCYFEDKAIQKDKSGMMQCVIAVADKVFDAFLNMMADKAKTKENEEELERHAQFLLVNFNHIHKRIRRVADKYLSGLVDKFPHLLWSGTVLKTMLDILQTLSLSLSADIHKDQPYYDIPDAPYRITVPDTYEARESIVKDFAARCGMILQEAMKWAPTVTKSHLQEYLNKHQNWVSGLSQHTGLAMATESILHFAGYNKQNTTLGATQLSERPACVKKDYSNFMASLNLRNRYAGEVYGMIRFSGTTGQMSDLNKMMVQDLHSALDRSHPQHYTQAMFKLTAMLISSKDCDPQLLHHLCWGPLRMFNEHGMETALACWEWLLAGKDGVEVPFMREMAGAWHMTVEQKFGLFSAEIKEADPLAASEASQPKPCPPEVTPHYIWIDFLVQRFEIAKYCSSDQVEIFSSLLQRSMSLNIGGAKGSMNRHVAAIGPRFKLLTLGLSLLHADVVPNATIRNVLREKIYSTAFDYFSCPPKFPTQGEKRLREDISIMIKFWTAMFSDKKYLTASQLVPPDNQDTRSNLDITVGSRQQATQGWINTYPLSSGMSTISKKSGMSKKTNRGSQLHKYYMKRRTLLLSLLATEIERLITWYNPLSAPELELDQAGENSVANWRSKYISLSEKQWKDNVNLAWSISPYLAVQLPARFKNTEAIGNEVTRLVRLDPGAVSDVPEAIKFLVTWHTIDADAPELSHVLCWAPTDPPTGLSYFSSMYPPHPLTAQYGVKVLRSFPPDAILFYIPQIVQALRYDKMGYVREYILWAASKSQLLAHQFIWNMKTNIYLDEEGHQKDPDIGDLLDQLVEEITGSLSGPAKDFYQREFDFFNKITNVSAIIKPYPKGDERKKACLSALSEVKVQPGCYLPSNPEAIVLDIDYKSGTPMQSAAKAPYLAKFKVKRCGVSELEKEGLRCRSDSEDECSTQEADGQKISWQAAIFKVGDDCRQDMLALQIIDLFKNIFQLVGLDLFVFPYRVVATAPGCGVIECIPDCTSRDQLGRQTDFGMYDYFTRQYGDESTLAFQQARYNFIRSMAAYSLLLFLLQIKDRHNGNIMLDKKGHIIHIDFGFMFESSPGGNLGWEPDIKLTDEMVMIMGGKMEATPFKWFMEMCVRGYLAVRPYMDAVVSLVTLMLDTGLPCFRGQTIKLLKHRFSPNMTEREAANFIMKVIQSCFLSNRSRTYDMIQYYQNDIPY
Procedure: (§2) Phosphatidyl inositol kinase inhibition assay Inhibition of PI4 kinases was studied using the ADP-Glo™ Kinase Assay which is a luminescent kinase assay that measures ADP formed from a kinase reaction, wherein ADP is converted into ATP, which is converted into light by Ultra-Glo™ Luciferase. The assay is performed in two steps; first, after the kinase reaction, an equal volume of ADP-Glo™ Reagent is added to terminate the kinase reaction and deplete the remaining ATP. In the second step, the Kinase Detection Reagent is added, which simultaneously converts ADP to ATP and allows the newly synthesized ATP to be measured using a coupled luciferase/luciferin reaction. The luminescent signal produced is proportional to the activity of the kinase. Inhibition of PI3 kinases was studied using the HTRF (homogeneous time-resolved fluorescence) assay, which is a universal method for identifying and characterizing the phosphotransferase activity induced by any ATP/ADP dependent target. The formation of ADP was detected by a specific monoclonal antibody labeled with Eu^3+ cryptate, and directly correlated with the amount of phosphorylated substrate.

PI4KIIIβ = PI4KIIIβ (Homo sapiens, UniProt Q9UBF8); assay: as above; type: biochemical
Sequence of PI4KIIIβ (Q9UBF8 whole entry): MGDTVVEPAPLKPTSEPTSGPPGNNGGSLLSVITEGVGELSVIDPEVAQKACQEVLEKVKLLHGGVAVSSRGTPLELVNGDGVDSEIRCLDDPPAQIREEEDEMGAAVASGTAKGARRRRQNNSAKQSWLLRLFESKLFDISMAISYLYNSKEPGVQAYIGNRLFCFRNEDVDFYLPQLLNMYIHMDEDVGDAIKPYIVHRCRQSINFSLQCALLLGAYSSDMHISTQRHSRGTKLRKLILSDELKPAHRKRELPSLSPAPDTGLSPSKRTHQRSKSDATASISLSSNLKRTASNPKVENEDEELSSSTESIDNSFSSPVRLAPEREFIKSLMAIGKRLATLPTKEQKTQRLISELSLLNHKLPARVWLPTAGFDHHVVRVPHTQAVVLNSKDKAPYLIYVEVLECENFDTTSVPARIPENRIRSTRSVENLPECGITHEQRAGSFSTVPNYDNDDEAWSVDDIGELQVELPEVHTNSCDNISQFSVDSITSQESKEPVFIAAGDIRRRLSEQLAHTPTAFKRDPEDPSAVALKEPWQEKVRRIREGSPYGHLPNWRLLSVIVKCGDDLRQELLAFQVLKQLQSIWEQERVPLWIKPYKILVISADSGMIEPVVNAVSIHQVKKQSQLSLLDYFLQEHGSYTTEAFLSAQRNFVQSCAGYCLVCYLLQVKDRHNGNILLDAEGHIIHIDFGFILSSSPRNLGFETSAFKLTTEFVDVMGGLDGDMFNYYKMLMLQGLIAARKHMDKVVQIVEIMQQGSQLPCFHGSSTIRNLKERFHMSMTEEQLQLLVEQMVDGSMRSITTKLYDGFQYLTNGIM
Procedure: as §2

PI3Kα = PI3Kα (Homo sapiens, UniProt P42336); assay: PI3 kinase inhibition HTRF assay; type: biochemical; conditions: * no inhibition at the highest tested concentration 1 μM
Sequence of PI3Kα (P42336 whole entry, species assumed): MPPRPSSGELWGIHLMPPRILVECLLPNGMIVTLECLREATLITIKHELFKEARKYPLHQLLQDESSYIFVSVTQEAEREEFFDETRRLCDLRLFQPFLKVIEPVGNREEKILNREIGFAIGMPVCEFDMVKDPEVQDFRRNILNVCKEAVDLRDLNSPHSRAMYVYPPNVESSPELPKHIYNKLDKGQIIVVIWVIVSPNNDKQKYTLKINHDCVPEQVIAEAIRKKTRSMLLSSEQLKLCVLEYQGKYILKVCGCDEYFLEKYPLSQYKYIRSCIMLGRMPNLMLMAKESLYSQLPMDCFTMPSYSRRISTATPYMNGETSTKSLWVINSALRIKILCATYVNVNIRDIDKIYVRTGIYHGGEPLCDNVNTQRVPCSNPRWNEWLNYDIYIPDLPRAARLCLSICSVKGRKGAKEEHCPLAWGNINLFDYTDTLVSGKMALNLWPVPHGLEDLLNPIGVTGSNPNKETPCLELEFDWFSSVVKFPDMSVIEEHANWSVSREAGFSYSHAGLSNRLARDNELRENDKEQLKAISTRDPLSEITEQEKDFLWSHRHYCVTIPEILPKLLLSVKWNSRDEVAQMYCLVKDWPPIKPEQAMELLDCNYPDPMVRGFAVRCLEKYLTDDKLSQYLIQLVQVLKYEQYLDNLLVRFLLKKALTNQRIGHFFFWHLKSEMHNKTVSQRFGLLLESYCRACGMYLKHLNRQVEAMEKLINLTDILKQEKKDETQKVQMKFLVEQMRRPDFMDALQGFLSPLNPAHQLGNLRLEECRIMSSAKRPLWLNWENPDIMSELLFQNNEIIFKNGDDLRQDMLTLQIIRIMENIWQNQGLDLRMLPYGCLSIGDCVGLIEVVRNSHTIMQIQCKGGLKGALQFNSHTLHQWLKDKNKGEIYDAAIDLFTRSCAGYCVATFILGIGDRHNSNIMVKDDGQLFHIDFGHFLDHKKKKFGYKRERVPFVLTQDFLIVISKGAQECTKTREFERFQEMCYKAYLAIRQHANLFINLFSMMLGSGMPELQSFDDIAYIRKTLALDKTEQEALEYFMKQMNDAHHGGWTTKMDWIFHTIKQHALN
Sequence of PI3Kα (P27986 whole entry partner, species assumed): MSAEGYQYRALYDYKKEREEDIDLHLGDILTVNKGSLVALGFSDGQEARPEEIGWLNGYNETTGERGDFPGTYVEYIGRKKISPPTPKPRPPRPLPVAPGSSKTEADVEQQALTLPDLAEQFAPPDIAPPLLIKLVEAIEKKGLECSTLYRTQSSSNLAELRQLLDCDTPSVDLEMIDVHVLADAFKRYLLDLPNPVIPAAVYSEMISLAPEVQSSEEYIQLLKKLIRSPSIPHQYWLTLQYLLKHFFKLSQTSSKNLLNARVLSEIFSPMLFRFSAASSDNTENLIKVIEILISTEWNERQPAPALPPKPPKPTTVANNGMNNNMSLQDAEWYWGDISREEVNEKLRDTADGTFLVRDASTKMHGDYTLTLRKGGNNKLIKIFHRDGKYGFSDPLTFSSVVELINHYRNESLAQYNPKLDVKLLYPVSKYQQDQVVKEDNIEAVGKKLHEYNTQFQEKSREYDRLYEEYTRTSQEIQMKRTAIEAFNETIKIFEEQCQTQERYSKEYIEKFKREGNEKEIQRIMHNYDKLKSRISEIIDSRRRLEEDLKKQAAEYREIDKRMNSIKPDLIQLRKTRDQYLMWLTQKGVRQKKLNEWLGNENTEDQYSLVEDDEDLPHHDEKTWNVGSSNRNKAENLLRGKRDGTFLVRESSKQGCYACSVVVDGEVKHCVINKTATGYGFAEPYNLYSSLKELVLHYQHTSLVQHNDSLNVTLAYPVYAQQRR
Procedure: as §2

PI3Kβ = PI3Kβ (Homo sapiens, UniProt P42338); assay: PI3 kinase inhibition HTRF assay; type: biochemical; conditions: * no inhibition at the highest tested concentration 1 μM
Procedure: as §2

EV71 = assay: Time of addition assay; type: cell-based, Enterovirus 71; conditions: Enterovirus A, 100 nM, EV71 at high titer
Procedure: The titer of the virus was determined by the standard method of tissue culture infective dose (TCID50) on cells. Briefly, cells were infected with 50 μl of virus suspension, and diluted 10-fold in media. The plates were incubated in 37° C. with 5% CO2 for 3-7 days and cells were inspected daily for CPE. After determining CPE, plates were stained with Gram's Crystal Violet solution and optical density was read at 540 nm. […] Substances at a final concentration of 0.1 nM-1 μM and the virus were added to the cells and incubated for 3-7 days depending on the virus and cell line used. As controls, uninfected cells and cells infected with virus (no substance) were included on each plate. The cells were stained with crystal violet after determining the CPE on infected controls and the optical density was read at 540 nm. The inhibition capacity was calculated as a % by comparison with non-infected and infected controls. Time of addition assay The assay was performed like the “in vitro assay in mammalian cell culture” described above with the exception that substance was added one hour pre inoculation (−1 h), at inoculation (0 h), and 2 hours (+2 h), 6 hours (+6 h) or 24 hours (+24 h) past inoculation. The virus EV71 was used at high titer for the test.

SMILES | IC50 (Enterovirus 6) | IC50 (Enterovirus 30) | IC50 (Enterovirus 68) | IC50 (Enterovirus 71) | IC50 (coxsackie B1 virus) | IC50 (coxsackie B2 virus) | IC50 (coxsackie B3 virus) | IC50 (coxsackie B5 virus) | IC50 (polio virus Sabin 1) | AUC(0-inf) (in vivo) | AUC(0-t) (in vivo) | AUCextrap (in vivo) | Cmax (in vivo) | MRT last (in vivo) | Tmax (in vivo) | half-life (in vivo) | IC50 (coxsackie B4 virus) | further results
Cc1cc(NCc2ccncc2)c2nc(C)c(-c3ccc4c(c3)c(C)nn4C)n2n1 [Example 1, 3-(1,3-dimethyl-1H-indazol-5-yl)-2,6-dimethyl-N-(pyridin-4-ylmethyl)imidazo[1,2-b]pyridazin-8-amine] | < 10 nM | < 0.1 nM | < 100 nM | < 10 nM | < 10 nM | < 10 nM | < 1 nM | < 0.1 nM | < 1 nM | 31800 ± 8000 ng·h/mL | 22200 ± 2100 ng·h/mL | 27.8 ± 14.8% | 3900 ± 400 ng/mL | 3.4 ± 0.2 h | 1.7 ± 0.6 h | 4.3 ± 2 h |  | Remaining after 1 h, HLM [1]: 90%; half-life at 5 μM [1]: > 2 h; Remaining after 1 h, RLM [2]: 88%; fraction unbound at 4 h, 5 μM (in vitro; human): 0.016; fraction unbound at 4 h, 5 μM (in vitro; rat): 0.03
Cc1ccc(CNc2cc(C)nn3c(-c4ccc5c(c4)c(C)nn5C)c(C)nc23)cn1 [Example 2, 3-(1,3-dimethyl-1H-indazol-5-yl)-2,6-dimethyl-N-((6-methylpyridin-3-yl)methyl)imidazo[1,2-b]pyridazin-8-amine] | < 100 nM | < 100 nM | < 1000 nM | < 100 nM | < 100 nM | < 100 nM | < 10 nM | < 100 nM | < 100 nM | 64100 ± 7000 ng·h/mL | 58600 ± 9900 ng·h/mL | 8.8 ± 7.1% | 4800 ± 800 ng/mL | 6.9 ± 0.8 h | 1.7 ± 0.6 h | 6.6 ± 2.4 h | < 10 nM | IC50 (PI4KIIIα): 200 nM; IC50 (PI4KIIIβ): 1.5 nM; IC50 (PI3Kα): > 1000 nM; IC50 (PI3Kβ): 1700 nM
Cc1cc(NCc2ccc(S(C)(=O)=O)cc2)c2nc(C)c(-c3ccc4c(c3)c(C)nn4C)n2n1 [Example 7, 3-(1,3-dimethyl-1H-indazol-5-yl)-2,6-dimethyl-N-(4-(methyl-sulfonyl)benzyl)imidazo[1,2-b]pyridazin-8-amine] |  | < 100 nM | < 1 nM | < 1 nM | < 10 nM | < 10 nM | < 1 nM | < 10 nM | < 10 nM |  |  |  |  |  |  |  | < 100 nM | inhibition at 0.1 µM (EV71; 0 h, substance added at inoculation, read-out: Inhibition of cytopathogenic effect, 0 h): 85%; inhibition at 0.1 µM (EV71; 1 h, substance added one hour pre inoculation, read-out: Inhibition of cytopathogenic effect, −1 h): 95%; inhibition at 0.1 µM (EV71; substance added 2 hours past inoculation, read-out: Inhibition of cytopathogenic effect, +2 h): 100%; inhibition at 0.1 µM (EV71; substance added 6 hours past inoculation, read-out: Inhibition of cytopathogenic effect, +6 h): 91%; inhibition at 0.1 µM (EV71; substance added 24 hours past inoculation, read-out: Inhibition of cytopathogenic effect, +24 h): 2%; Remaining after 1 h, HLM [1]: 75%; half-life at 5 μM [1]: > 2 h; Remaining after 1 h, RLM [2]: 94%; fraction unbound at 4 h, 5 μM (in vitro; human): 0.005; fraction unbound at 4 h, 5 μM (in vitro; rat): 0.006
Cc1cc(NCc2ccc(S(N)(=O)=O)cc2)n2nc(C)c(-c3ccc4c(c3)c(C)nn4C)c2n1 [Example 13, 4-(((3-(1,3-dimethyl-1H-indazol-5-yl)-2,5-dimethylpyrazolo[1,5-a]pyrimidin-7-yl)amino)methyl)benzene-sulfonamide] | < 1000 nM | < 100 nM | < 1000 nM | < 100 nM | < 1000 nM | < 1000 nM | < 100 nM | < 100 nM | < 100 nM | 76100 ± 26800 ng·h/mL | 62100 ± 10900 ng·h/mL | 14.5 ± 17.1% | 5900 ± 900 ng/mL | 7.5 ± 1.4 h | 2 h | 8.2 ± 5.4 h | < 100 nM | 
Cc1nc(NCc2ccc(S(N)(=O)=O)cc2)n2nc(C)c(-c3ccc4c(c3)c(C)nn4C)c2n1 [Example 23, 4-(((8-(1,3-dimethyl-1H-indazol-5-yl)-2,7-dimethylpyrazolo[1,5-a][1,3,5]triazin-4-yl)amino)methyl)benzene-sulfonamide] | < 100 nM | < 100 nM | < 100 nM | < 10 nM | < 100 nM | < 100 nM | < 100 nM | < 100 nM | < 100 nM |  |  |  |  |  |  |  | < 10 nM | 
Cc1nc(NCc2ccc(Cl)cc2)n2nc(C)c(-c3ccc4c(c3)c(C)nn4C)c2n1 [Example 24, N-(4-chlorobenzyl)-8-(1,3-dimethyl-1H-indazol-5-yl)-2,7-dimethylpyrazolo[1,5-a][1,3,5]triazin-4-amine] | < 1000 nM | < 100 nM | < 1000 nM | < 100 nM | < 100 nM | < 100 nM | < 100 nM | < 1000 nM | < 100 nM |  |  |  |  |  |  |  | < 100 nM | 
Cc1nc(NCc2ccc(S(C)(=O)=O)cc2)n2nc(C)c(-c3ccc4c(c3)c(C)nn4C)c2n1 [Example 25, 8-(1,3-dimethyl-1H-indazol-5-yl)-2,7-dimethyl-N-(4-(methyl-sulfonyl)benzyl)pyrazolo[1,5-a][1,3,5]triazin-4-amine] | < 10 nM | < 10 nM | < 10 nM | < 10 nM | < 10 nM | < 10 nM | < 10 nM | < 10 nM | < 1 nM |  |  |  |  |  |  |  | < 1 nM | 

Source: patent US11001587B2, “Substituted indazoles as phosphatidylinositol kinase inhibitors” (CUROVIR AB, priority 2017, dated 2021)
